Measured values from patent US8063096B2, “Spirocyclic 3-phenyl-3substituted-4-ketolactams and-lactones” (Bayer Cropscience AG, priority 2001, dated 2011).
Where two headings read alike, the source gives them in different places. Blank lines part the entries; values can stand above or below the compound they belong to.

Experiments:
Aphis gossypii [1] = assay: Aphis gossypii test (leaf dip, cotton); format: in vivo; settings: 500 ppm active compound, cotton leaves dipped
Procedure: (§1) [table] To produce a suitable preparation of active compound, 1 part by weight of active compound is mixed with the stated amounts of solvent and emulsifier, and the concentrate is diluted with emulsifier-containing water to the desired concentration. Cotton leaves (Gossypium hirsutum) which are heavily infested by the cotton aphids (Aphis gossypii) are treated by being dipped into the preparation of active compound of the desired concentration. After the desired period of time, the kill in % is determined. 100% means that all aphids have been killed; 0% means that none of the aphids have been killed.

Meloidogyne incognita = assay: Meloidogyne test (gall formation on lettuce roots); format: in vivo; settings: 20 ppm active compound, nematicidal action by gall formation
Procedure: [table] To produce a suitable preparation of active compound, 1 part by weight of active compound is mixed with the stated amounts of solvent and emulsifier, and the concentrate is diluted with water to the desired concentration. Vessels are filled with sand, solution of active compound, Meloidogyne incognita egg/larvae suspension and lettuce seeds. The lettuce seeds germinate and the plants develop. On the roots, galls develop. After the desired period of time, the nematicidal action is determined in % by the formation of galls. 100% means that no galls have been found; 0% means that the number of galls on the treated plants corresponds to that of the untreated control.

Tetranychus urticae = assay: Tetranychus test (OP-resistant/dip treatment); format: in vivo; settings: 100 ppm active compound, bean plants dipped, OP-resistant
Procedure: [table] To produce a suitable preparation of active compound, 1 part by weight of active compound is mixed with the stated amounts of solvent and emulsifier, and the concentrate is diluted with emulsifier-containing water to the desired concentration. Bean plants (Phaseolus vulgaris) which are heavily infested by all stages of the greenhouse […] spider mite (Tetranychus urticae) are dipped into a preparation of active compound of the desired concentration. After the desired period of time, the activity in % is determined. 100% means that all spider mites have been killed; 0% means that none of the spider mites have been killed.

Myzus persicae [2] = assay: Test for persistency: Myzus persicae (root-systemic action); format: in vivo; settings: 4 ppm in soil, broad beans
Procedure: (§2) [table] To produce a suitable preparation of active compound, 1 part by weight of active compound is mixed with the stated amounts of solvent and emulsifier, and the concentrate is diluted with water to the desired concentration. The preparation of active compound is mixed intimately with the soil. The stated concentration refers to the amount of active compound per volume unit of soil (mg/l). The treated soil is filled into pots, and into these pots is planted pre-germinated broad beans. In this way, the active compound can be taken up from the soil into the roots of the plants and be transported into the leaves. After the stated number of days, peach aphids (Myzus persicae) are, in infection chambers, placed on the leaves. After the desired period of time, the kill in % is determined. 100% means that all aphids have been killed; 0% means that none of the aphids have been killed.

log P determination = format: physicochemical
Phaedon cochleariae = assay: Phaedon larvae test; format: in vivo; settings: 500 ppm active compound, cabbage leaves dipped
Procedure: [table] To produce a suitable preparation of active compound, 1 part by weight of active compound is mixed with the stated amounts of solvent and emulsifier, and the concentrate is diluted with emulsifier-containing water to the desired concentration. Cabbage leaves (Brassica oleracea) are treated by being dipped into the preparation of active compound of the desired concentration and are populated with larvae of the mustard beetle (Phaedon cochleariae) while leaves are still moist. After the desired period of time, the kill in % is determined. 100% means that all beetle larvae have been killed; 0% means that none of the beetle larvae have been killed.

Aphis gossypii [3] = assay: Test for persistency: Aphis gossypii (root-systemic action); format: in vivo; settings: 4 ppm in soil, cotton
Procedure: as §2, with “cotton at the cotyledon stage.” for “pre-germinated broad beans.”, “cotton” for “peach”, “(Aphis gossypii)” for “(Myzus persicae)”

Alopecurus [4] = assay: Pre-emergence test, Alopecurus; format: in vivo; settings: pre-emergence/greenhouse; 250 g of ai/ha; after three weeks
Procedure: (§3) [table] To produce a suitable preparation of active compound, 1 part by weight of active compound is mixed with the stated amount of solvent, the stated amount of emulsifier is added and the concentrate is diluted with water to the desired concentration. Seeds of the test plants are sown in normal soil. After about 24 hours, the soil is sprayed with the preparation of active compound such that the particular amounts of active compound desired are applied per unit area. The concentration of the spray liquor is chosen such that the particular amounts of active compound desired are applied in 1000 l of water/ha. After three weeks, the degree of damage to the plants is rated in % damage in comparison to the development of the untreated control. The figures denote: • 0%=no effect (like untreated control) • 100%=total destruction

Avena fatua [5] = assay: Pre-emergence test, Avena fatua; format: in vivo; settings: pre-emergence/greenhouse; 250 g of ai/ha; after three weeks
Procedure: as §3

Echinochloa [6] = assay: Pre-emergence test, Echinochloa; format: in vivo; settings: pre-emergence/greenhouse; 250 g of ai/ha; after three weeks
Procedure: as §3

Setaria [7] = assay: Pre-emergence test, Setaria; format: in vivo; settings: pre-emergence/greenhouse; 250 g of ai/ha; after three weeks
Procedure: as §3

Sinapis [8] = assay: Pre-emergence test, Sinapis; format: in vivo; settings: pre-emergence/greenhouse; 250 g of ai/ha; after three weeks
Procedure: as §3

Alopecurus [9] = assay: Post-emergence test, Alopecurus; format: in vivo; settings: post-emergence/greenhouse; 250 g of ai/ha; after three weeks
Procedure: as §3, with “Test plants” for “Seeds”, “a height of 5-15 cm” for “the test plants”, “are” for “are sown in normal soil. After about 24 hours, the soil is”, “(=like” for “(like”

Avena fatua [10] = assay: Post-emergence test, Avena fatua; format: in vivo; settings: post-emergence/greenhouse; 250 g of ai/ha; after three weeks
Procedure: as §3, with “Test plants” for “Seeds”, “a height of 5-15 cm” for “the test plants”, “are” for “are sown in normal soil. After about 24 hours, the soil is”, “(=like” for “(like”

Echinochloa [11] = assay: Post-emergence test, Echinochloa; format: in vivo; settings: post-emergence/greenhouse; 250 g of ai/ha; after three weeks
Procedure: as §3, with “Test plants” for “Seeds”, “a height of 5-15 cm” for “the test plants”, “are” for “are sown in normal soil. After about 24 hours, the soil is”, “(=like” for “(like”

Setaria [12] = assay: Post-emergence test, Setaria; format: in vivo; settings: post-emergence/greenhouse; 250 g of ai/ha; after three weeks
Procedure: as §3, with “Test plants” for “Seeds”, “a height of 5-15 cm” for “the test plants”, “are” for “are sown in normal soil. After about 24 hours, the soil is”, “(=like” for “(like”

Sinapis [13] = assay: Post-emergence test, Sinapis; format: in vivo; settings: post-emergence/greenhouse; 250 g of ai/ha; after three weeks
Procedure: as §3, with “Test plants” for “Seeds”, “a height of 5-15 cm” for “the test plants”, “are” for “are sown in normal soil. After about 24 hours, the soil is”, “(=like” for “(like”

Myzus persicae [14] = assay: Myzus test (leaf dip, cabbage); format: in vivo; settings: 500 ppm active compound, cabbage leaves dipped
Procedure: as §1, with “Cabbage” for “Cotton”, “(Brassica oleracea)” for “(Gossypium hirsutum)”, “peach” for “the cotton”, “(Myzus persicae)” for “(Aphis gossypii)”

Sugar beet = assay: Pre-emergence test, Sugar beet; format: in vivo; settings: pre-emergence/greenhouse; 250 g of ai/ha; after three weeks; crop
Procedure: as §3

[15] = pH 2.3, pH 2.3, read-out: logP (2.3)

Compound: COC1CCC2(CC1)NC(=O)C(Cl)(c1cc(C)ccc1C)C2=O (stereo not drawn) [Ex. I-1-a-2]
Kill rate in % after 6d (Aphis gossypii [1]): 95%
Kill rate in % after 14d (Meloidogyne incognita): 90%
Kill rate in % after 7d (Tetranychus urticae): 98%

logP (log P determination; pH 2.3, pH 2.3, read-out: log P (pH 2.3)): 4.07
logP (log P determination; [15]): 4.07
Compound: COC1CCC2(CC1)OC(=O)C(Cl)(c1cc(C)c(C)cc1C)C2=O (stereo not drawn) [Ex. I-2-a-1]
Kill rate in % after 7d (Myzus persicae [2]; infection after 7 d): 100%
Kill rate in % after 7d (Myzus persicae [2]; infection after 21 d): 95%
Kill rate in % after 7d (Myzus persicae [2]; infection after 35 d): 0%

Compound: COc1cc(C(F)(F)F)cc(Cl)c1C1(Cl)C(=O)NC2(CCC(OC)CC2)C1=O (stereo not drawn) [Ex. I-1-a-5]
Kill rate in % after 7d (Tetranychus urticae): 95%

Compound: Cc1cc(Br)cc(Cl)c1C1(Cl)C(=O)NC2(CCCOC2)C1=O (stereo not drawn) [Ex. I-1-b-8]
Kill rate in % after 7d (Phaedon cochleariae): 100%

Compound: CCOC1CCC2(CC1)NC(=O)C(Cl)(c1cc(C)ccc1Br)C2=O (stereo not drawn) [Ex. I-1-a-41]
Kill rate in % after 7d (Phaedon cochleariae): 100%
Kill rate in % after 7d (Tetranychus urticae): 95%

Compound: Cc1cc(Cl)cc(Cl)c1C1(Cl)C(=O)NC2(CCOC(C)C2)C1=O (stereo not drawn) [Ex. I-1-c-1]
Kill rate in % after 6d (Aphis gossypii [1]): 90%
Kill rate in % after 7d (Aphis gossypii [3]; infection after 7 d): 99%
Kill rate in % after 7d (Aphis gossypii [3]; infection after 21 d): 99^ %
Kill rate in % after 7d (Aphis gossypii [3]; infection after 35 d): 98^ %
Kill rate in % after 7d (Myzus persicae [2]; infection after 7 d): 100%
Kill rate in % after 7d (Myzus persicae [2]; infection after 21 d): 100%
Kill rate in % after 7d (Myzus persicae [2]; infection after 35 d): 100%

Compound: Cc1cc(Cl)cc(Br)c1C1(Cl)C(=O)NC2(CCCOC2)C1=O (stereo not drawn) [Ex. I-1-b-9]
Kill rate in % after 7d (Phaedon cochleariae): 100%

log P (log P determination; isomer mixture, two values): 4.42
logP (2.3) (log P determination; pH 2.3): 4.42
logP (log P determination; pH 2.3, isomer mixture, two values, read-out: log P): 4.17
logP (log P determination; [15]): 4.17
Compound: COC1CCC2(CC1)OC(=O)C(c1cc(C)c(C)cc1C)([N+](=O)[O-])C2=O (stereo not drawn) [I-2-a-2]

Compound: COC1CCC2(CC1)NC(=O)C(Cl)(c1ccc(OC(F)(F)F)cc1C)C2=O (stereo not drawn) [Ex. I-1-a-22]
Kill rate in % after 7d (Tetranychus urticae): 100%

Compound: Cc1cc(Br)cc(C)c1C1(Cl)C(=O)NC2(CCCOC2)C1=O (stereo not drawn) [Ex. I-1-b-1]
Kill rate in % after 7d (Tetranychus urticae): 95%

Compound: COC1CCC2(CC1)NC(=O)C(Cl)(c1c(Cl)ccc(C)c1Cl)C2=O (stereo not drawn) [Ex. I-1-a-33]
Kill rate in % after 14d (Meloidogyne incognita): 98%

Compound: CCc1cc(Cl)c(C2(Cl)C(=O)NC3(CCCOC3)C2=O)c(Br)c1 (stereo not drawn) [Ex. I-1-b-5]
Kill rate in % after 7d (Tetranychus urticae): 90%

Compound: COC1CCC2(CC1)NC(=O)C(Cl)(c1c(C)cc(Br)cc1C)C2=O (stereo not drawn) [Ex. I-1-a-9]
Kill rate in % after 7d (Phaedon cochleariae): 90%
% damage, Alopecurus (Alopecurus [4]): 100%
% damage, Avena fatua (Avena fatua [5]): 80%
% damage, Echinochloa (Echinochloa [6]): 100%
% damage, Setaria (Setaria [7]): 100%
% damage, Sinapis (Sinapis [8]): 90%
% damage, Alopecurus (Alopecurus [9]): 95%
% damage, Avena fatua (Avena fatua [10]): 90%
% damage, Echinochloa (Echinochloa [11]): 100%
% damage, Setaria (Setaria [12]): 100%
% damage, Sinapis (Sinapis [13]): 80%

Compound: COC1CCC2(CC1)NC(=O)C(Cl)(c1ccc(C)cc1C(F)(F)F)C2=O (stereo not drawn) [Ex. I-1-a-16]
Kill rate in % after 7d (Tetranychus urticae): 100%

Compound: CCc1cc(Cl)cc(Cl)c1C1(Cl)C(=O)NC2(CCC(OC)CC2)C1=O (stereo not drawn) [Ex. I-1-a-46]
Kill rate in % after 6d (Myzus persicae [14]): 98%
% damage, Alopecurus (Alopecurus [4]): 95%
% damage, Avena fatua (Avena fatua [5]): 100%
% damage, Echinochloa (Echinochloa [6]): 100%
% damage, Setaria (Setaria [7]): 100%
% damage, Sugar beet (Sugar beet): 0%
% damage, Alopecurus (Alopecurus [9]): 100%
% damage, Avena fatua (Avena fatua [10]): 100%
% damage, Echinochloa (Echinochloa [11]): 100%
% damage, Setaria (Setaria [12]): 100%
% damage, Sinapis (Sinapis [13]): 70%

Compound: Cc1cc(Cl)ccc1C1(Cl)C(=O)NC2(CCOCC2)C1=O (stereo not drawn) [Ex. I-1-c-4]
Kill rate in % after 6d (Myzus persicae [14]): 95%

Compound: COC1CCC2(CC1)NC(=O)C(Cl)(c1c(Cl)cc(Cl)cc1Cl)C2=O (stereo not drawn) [Ex. I-1-a-42]
Kill rate in % after 14d (Meloidogyne incognita): 90%
Kill rate in % after 6d (Myzus persicae [14]): 95%

Compound: COC1CCC2(CC1)NC(=O)C(Cl)(c1cc(C)ccc1Cl)C2=O (stereo not drawn) [Ex. I-1-a-1]
Kill rate in % after 7d (Phaedon cochleariae): 100%

Compound: COC1CCC2(CC1)NC(=O)C(Cl)(c1c(Cl)cc(Cl)c(C)c1Cl)C2=O (stereo not drawn) [Ex. I-1-a-27]
Kill rate in % after 14d (Meloidogyne incognita): 100%
Kill rate in % after 6d (Myzus persicae [14]): 90%
